According to patent publication US7692030B2, “Conjugates of artemisinin-related endoperoxides and hydrazone derivatives for the treatment of cancer” (University of Washington, priority 2006, dated 2010):

Assays:
HL-60(TB) = format: cell-based, human; settings: Leukemia, 10 μM, 48 h
Protocol: The human tumor cell lines of the cancer screening panel were grown in RPMI 1640 medium containing 5% fetal bovine serum and 2 mM L-glutamine. For experimental screens, cells were inoculated into 96 well microtiter plates in 100 μL at plating densities ranging from 5,000 to 40,000 cells/well depending on the doubling time of individual cell lines. After cell inoculation, the microtiter plates were incubated at 37° C., 5% carbon dioxide, 95% air and 100% relative humidity for 24 hours prior to addition of the compounds.

NCI-H226 = experiment: NCI DTP human tumor cell line screen (SRB); format: cell-based; settings: Non-Small Cell Lung Cancer, 10 μM, 48 h
Protocol: (§1) Representative compounds of the invention, prepared as described in EXAMPLES 1-6, were submitted to the Developmental Therapeutics Program of the United States National Cancer Institute (NCl) to screen for anti-cancer activity. The anti-cancer activities of the six compounds were tested against approximately 60 human tumor cell lines representing leukemia, melanoma, and cancers of the lung, colon, breast, ovary, kidney, prostate, and brain. The following screening methodology was provided by the NCl. […] For experimental screens, cells were inoculated into 96 well microtiter plates in 100 μL at plating densities ranging from 5,000 to 40,000 cells/well depending on the doubling time of individual cell lines. After cell inoculation, the microtiter plates were incubated at 37° C., 5% carbon dioxide, 95% air and 100% relative humidity for 24 hours prior to addition of the compounds. After 24 hours of incubation, two plates of each cell line were fixed in situ with trichloroacetic acid (TCA) to represent a measurement of the cell population for each cell line at the time of compound addition (Tz). The compounds were solubilized in dimethyl sulfoxide at 400-fold the desired final maximum test concentration and stored frozen prior to use. At the time of drug addition, frozen aliquots of the compounds thawed and diluted with complete medium containing 50 μg/ml gentamicin. Aliquots of 100 μl of these different compound dilutions were added to the appropriate microtiter wells already containing 100 μl of medium, resulting in the required final compound concentration of 10 μM. Following compound addition, the plates were incubated for an additional 48 h at 37° C., 5% carbon dioxide, 95% air, and 100% relative humidity. For adherent cells, the assay was terminated by the addition of cold TCA. Cells were fixed in situ by the gentle addition of 50 μl of cold 50% (w/v) TCA (final concentration, 10% TCA) and incubated for 60 minutes at 4° C. The supernatant was discarded, and the plates were washed five times with tap water and air dried. Sulforhodamine B (SRB) solution (100 μl) at 0.4% (w/v) in 1% acetic acid was added to each well, and plates were incubated for 10 minutes at room temperature. After staining, unbound dye was removed by washing five times with 1% acetic acid and the plates were air dried. Bound stain was subsequently solubilized with 10 mM trizma base, and the absorbance was read on an automated plate reader at a wavelength of 515 nm. For suspension cells, the methodology was the same except that the assay was terminated by fixing settled cells at the bottom of the wells by gently adding 50 μl of 80% TCA (final concentration, 16% TCA). Using the three absorbance measurements [time zero, (Tz), control growth, (C), and test growth in the presence of compound (Ti)], the percentage growth was calculated at each of the compound concentrations levels. Percentage growth inhibition was calculated with the following algorithms: [(Ti−Tz)/(C−Tz)]×100 for concentrations for which Ti>/=Tz [(Ti−Tz)/Tz]×100 for concentrations for which Ti<Tz The results of the NCl in vitro anticancer screening with six compounds against various human tumor cell lines are presented below in Tables 2-7. […] The growth percent mean, delta, and range for each compound are given below.

RPMI-8226 = experiment: NCI DTP human tumor cell line screen (SRB); format: cell-based; settings: Leukemia, 10 μM, 48 h
Protocol: as §1

SNB-19 = experiment: NCI DTP human tumor cell line screen (SRB); format: cell-based; settings: CNS Cancer, 10 μM, 48 h
Protocol: as §1

SK-MEL-2 = experiment: NCI DTP human tumor cell line screen (SRB); format: cell-based; settings: Melanoma, 10 μM, 48 h
Protocol: as §1

MDA-MB-231/ATCC = experiment: NCI DTP human tumor cell line screen (SRB); format: cell-based; settings: Breast Cancer, 10 μM, 48 h
Protocol: as §1

UO-31 = experiment: NCI DTP human tumor cell line screen (SRB); format: cell-based; settings: Renal Cancer, 10 μM, 48 h
Protocol: as §1

K-562 = experiment: NCI DTP human tumor cell line screen (SRB); format: cell-based; settings: Leukemia, 10 μM, 48 h
Protocol: as §1

SF-295 = experiment: NCI DTP human tumor cell line screen (SRB); format: cell-based; settings: CNS Cancer, 10 μM, 48 h
Protocol: as §1

HOP-62 = experiment: NCI DTP human tumor cell line screen (SRB); format: cell-based; settings: Non-Small Cell Lung Cancer, 10 μM, 48 h
Protocol: as §1

UACC-257 = experiment: NCI DTP human tumor cell line screen (SRB); format: cell-based; settings: Melanoma, 10 μM, 48 h
Protocol: as §1

HCT-15 = experiment: NCI DTP human tumor cell line screen (SRB); format: cell-based; settings: Colon Cancer, 10 μM, 48 h
Protocol: as §1

HCC-2998 = experiment: NCI DTP human tumor cell line screen (SRB); format: cell-based; settings: Colon Cancer, 10 μM, 48 h
Protocol: as §1

OVCAR-5 = experiment: NCI DTP human tumor cell line screen (SRB); format: cell-based; settings: Ovarian Cancer, 10 μM, 48 h
Protocol: as §1

HT29 = experiment: NCI DTP human tumor cell line screen (SRB); format: cell-based; settings: Colon Cancer, 10 μM, 48 h
Protocol: as §1

OVCAR-8 = experiment: NCI DTP human tumor cell line screen (SRB); format: cell-based; settings: Ovarian Cancer, 10 μM, 48 h
Protocol: as §1

EKVX = experiment: NCI DTP human tumor cell line screen (SRB); format: cell-based; settings: Non-Small Cell Lung Cancer, 10 μM, 48 h
Protocol: as §1

UACC-62 = experiment: NCI DTP human tumor cell line screen (SRB); format: cell-based; settings: Melanoma, 10 μM, 48 h
Protocol: as §1

T-47D = experiment: NCI DTP human tumor cell line screen (SRB); format: cell-based; settings: Breast Cancer, 10 μM, 48 h
Protocol: as §1

OVCAR-4 = experiment: NCI DTP human tumor cell line screen (SRB); format: cell-based; settings: Ovarian Cancer, 10 μM, 48 h
Protocol: as §1

NCI-H460 = experiment: NCI DTP human tumor cell line screen (SRB); format: cell-based; settings: Non-Small Cell Lung Cancer, 10 μM, 48 h
Protocol: as §1

OVCAR-3 = experiment: NCI DTP human tumor cell line screen (SRB); format: cell-based; settings: Ovarian Cancer, 10 μM, 48 h
Protocol: as §1

SK-MEL-5 = experiment: NCI DTP human tumor cell line screen (SRB); format: cell-based; settings: Melanoma, 10 μM, 48 h
Protocol: as §1

SK-MEL-28 = experiment: NCI DTP human tumor cell line screen (SRB); format: cell-based; settings: Melanoma, 10 μM, 48 h
Protocol: as §1

LOX IMVI = experiment: NCI DTP human tumor cell line screen (SRB); format: cell-based; settings: Melanoma, 10 μM, 48 h
Protocol: as §1

NCI-H23 = experiment: NCI DTP human tumor cell line screen (SRB); format: cell-based; settings: Non-Small Cell Lung Cancer, 10 μM, 48 h
Protocol: as §1

MCF7 = experiment: NCI DTP human tumor cell line screen (SRB); format: cell-based; settings: Breast Cancer, 10 μM, 48 h
Protocol: as §1

TK-10 = experiment: NCI DTP human tumor cell line screen (SRB); format: cell-based; settings: Renal Cancer, 10 μM, 48 h
Protocol: as §1

U251 = experiment: NCI DTP human tumor cell line screen (SRB); format: cell-based; settings: CNS Cancer, 10 μM, 48 h
Protocol: as §1

CCRF-CEM = experiment: NCI DTP human tumor cell line screen (SRB); format: cell-based; settings: Leukemia, 10 μM, 48 h
Protocol: as §1

HS 578T = experiment: NCI DTP human tumor cell line screen (SRB); format: cell-based; settings: Breast Cancer, 10 μM, 48 h
Protocol: as §1

A498 = experiment: NCI DTP human tumor cell line screen (SRB); format: cell-based; settings: Renal Cancer, 10 μM, 48 h
Protocol: as §1

## CC1CCC2C(C)C(OCc3ccc(C(=O)NN=Cc4ccccc4O)nc3)OC3OC4(C)CCC1C32OO4 (centres unmarked) [ART-Pyr-Sal, N′-(2-hydroxybenzylidene)-5-(dihydroxyartemisinin-methyl)-2-pyridine carbohydrazide]
HL-60(TB)
  Growth Percent: 5.22%
NCI-H226
  Growth Percent: 1.83%
RPMI-8226
  Growth Percent: 13.76%
SNB-19
  Growth Percent: 20.71%
SK-MEL-2
  Growth Percent: −23.42%
MDA-MB-231/ATCC
  Growth Percent: 50.08%
UO-31
  Growth Percent: 0.04%
K-562
  Growth Percent: 26.88%
SF-295
  Growth Percent: 4.52%
HOP-62
  Growth Percent: 20.73%
UACC-257
  Growth Percent: 6.22%
HCT-15
  Growth Percent: 21.89%
HCC-2998
  Growth Percent: 4.91%
OVCAR-5
  Growth Percent: 55.16%
HT29
  Growth Percent: 29.61%
OVCAR-8
  Growth Percent: 8.81%
EKVX
  Growth Percent: 32.52%
UACC-62
  Growth Percent: 7.61%
T-47D
  Growth Percent: 12.21%
OVCAR-4
  Growth Percent: 23.04%
NCI-H460
  Growth Percent: 0.12%
OVCAR-3
  Growth Percent: 35.18%
SK-MEL-5
  Growth Percent: −18.98%
SK-MEL-28
  Growth Percent: 29.92%
LOX IMVI
  Growth Percent: 2.20%
NCI-H23
  Growth Percent: 16.47%
MCF7
  Growth Percent: 13.61%
TK-10
  Growth Percent: 31.03%
U251
  Growth Percent: 14.70%
CCRF-CEM
  Growth Percent: −17.26%
HS 578T
  Growth Percent: 19.38%
A498
  Growth Percent: 5.27%
